We go through two compounds from ChEMBL document CHEMBL1155629, “Cytotoxic prenyleudesmane diterpenes from the fruits of Dysoxylum kuskusense” (2000).

Format in all cases: functional
Settings in all cases: read-out: ED50 (the source's name)

One assay has as its system P388. In words: Cytotoxicity against mouse P388 cells.
Another assay relates to A549. The assay is described as follows: Cytotoxicity against human A549 cells.
The subject of a further assay is HT-29. In words: Cytotoxicity against human HT29 cells.

Converted amounts (≈) assume the structure as drawn.

Consider `CC(C)=CC(=O)/C=C(\C)C1CC[C@@]2(C)CC(=O)C=C(C)[C@@H]2C1` (stereo partly specified) [DYSOKUSONE D], for which the results for the EC50 in the assay with P388, in the assay on A549 and with HT-29 were 3.87 µg/mL (≈ 12.9 µM), 2.39 µg/mL (≈ 7.95 µM) and 4.68 µg/mL (≈ 15.6 µM), respectively.
As for `CC1=CC(=O)C[C@]2(C)CCC(/C(C)=C/C=C/C(C)(C)O)C[C@@H]12` (stereo partly specified) [DYSOKUSONE E], the EC50 worked out at 2.64 µg/mL (≈ 8.73 µM) in the assay with P388, 3.76 µg/mL (≈ 12.4 µM) in the assay with A549 and 4.89 µg/mL (≈ 16.2 µM) with HT-29.
